Source: patent US20190269666A1, “COMBINATION THERAPY WITH MERESTINIB AND ANTI-PD-L1 OR ANTI-PD-1 INHIBITORS FOR USE IN THE TREATMENT OF CANCER” (Eli Lilly and Company, priority 2016, published 2019)

Experiments:
immune cells = experiment: Flow cytometry analysis of immune cells in spleens and tumors; format: in vivo, mouse; settings: compared to concurrent combination or vehicle control
Protocol: Spleens and tumors are collected from a subset of animals on the indicated study day(s) and processed for FACS analysis by homogenizing tissues through a tissue strainer to prepare a single cell suspension in culture medium. Single cell suspensions are then stained with fluorescently-labeled antibodies to identify immune markers including: CD3, CD4, CD8, CD11b, CD19, CD45, FoxP3, PD-L1, F4/80 and a fixable viability dye. Cells are analyzed using a BD LSR II flow cytometer. Data are collected and analyzed using Flowjo (Tree Star, Inc.) to measure the percentage of total live lymphocytes (Live, CD45+) in each tissue. Immune cell subsets are then measured as a percentage of CD45 cells, or as a percentage of the immediate parent population.

[1] = system: CT26 colorectal cancer model; experiment: Study S010516: merestinib and anti-PD-L1 antibody combinations in CT26 syngeneic mouse tumor model; format: in vivo; design: key to Mean Tumor Volume: mm³; tumor volume v = l×w²×0.536; settings: for Mean Tumor Volume: in mm³ (unit assumed)
Protocol: A syngeneic mouse tumor model is used to evaluate potential combination effect of merestinib and anti-PD-L1 antibody is the CT26 colorectal cancer model using the mouse colorectal cancer line CT26. This experiment is conducted in immune competent mice (Grosso and Jure-Kunkel, Cancer Immunity Vol. 13, p. 5, January 2013; Duraiswamy et al, Cancer Research, Jun. 15, 2013 73; 3591.). Anti-PD-L1 antibody surrogate (178G7, LSN3370181) (Eppihimer et al. Microcirculation 2002:9(2):133) is used in the mouse study.
Female BALB/c mice (18-20 gm) from Envigo (Harlan Laboratories) are used for this study. Food and water are available ad libitum. Animals are acclimated for one week prior to any experimental manipulation. The study is performed in accordance with AALAC accredited institutional guidelines.
Merestinib is formulated as a solution in 10% PEG 400 in 90% (20% Captisol in water) once weekly. Anti-PD-L1 antibody (178G7, LSN3370181) is formulated in PBS (phosphate buffered saline).
CT26 cells (from internal in vivo pharmacology cell culture group lot CT26.WT.3184878) are used for implantation. Approximately 1×10^6 cells in HBSS are implanted subcutaneously into the right hind flank of the animal under anesthesia.
Study S010516 has six groups: 1) vehicle control (10% PEG 400 in 90% [20% Captisol in water]) dosed orally once daily for 21 days and dosing initiated at Day 6 post-implant of CT26 cells; 2) single agent anti-PD-L1 antibody (178G7, LSN3370181) dosing via IP at 500 μg/animal once weekly for 3 weeks initiated at Day 6 post-implant of CT26 cells; 3) single agent merestinib at 12 mg/kg once daily orally for 21 days and initiated at Day 6 post-implant of CT26 cells; 4) concurrent combination of merestinib (12 mg/kg once daily for 21 days orally) and anti-PD-L1 antibody (500 μg/animal once weekly via IP for 3 weeks) and initiated at Day 6 post-implant of CT26 cells; 5) sequential combination of merestinib (12 mg/kg once daily for 21 days orally and initiated at Day 6 post-implant of CT26 cells) and anti-PD-L1 antibody (500 μg/animal once weekly via IP for 3 weeks and initiated at Day 13 post-implant of CT26 cells); 6) delayed concurrent combination of merestinib (12 mg/kg once daily for 21 days orally) and anti-PD-L1 antibody (500 μg/animal once weekly via IP for 3 weeks) and initiated at Day 10 post-implant of CT26 cells.
There are 15 animals per group. Five animals per group are taken down on Day 20 post-implant of CT26 cells for the harvesting of spleens and tumors for the interrogation of the effect of the combination of merestinib and anti-PD-L1 antibody combination on immune functions. Ten animals per group remain for the duration of the study unless, as pre-defined in the study protocol, the animal is to be sacrificed if the tumor volume exceeds 2500 mm^3 or is ulcerated. Tumor volumes and body weight are measured bi-weekly. Tumor volume is estimated by using the formula: v=l×w2×0.536 where l=larger of measured diameter and w=smaller of perpendicular diameter.
The last dose of drug is received on Day 20, Day 27, Day 27, Day 27 and Day 31, respectively, for group 2, group 3, group 4, group 5 and group 6. On Day 64, about 1 month to 1.5 months after completing drug-dosing, animals that are still alive and with tumor response classified as PR (partial responder) or CR (complete responder) are re-challenged with a new implantation of CT26 tumor cells (1×10^6 cells in HBSS) subcutaneously into the contralateral side of the hind flank (left side) of the animal under anesthesia. The definition of PR and CR is in the statistical method section below. Three naïve animals (study protocol S035116) are used as control and are implanted with the same batch of CT26 tumor cells (1×10^6 cells in HBSS) subcutaneously into the left hind flank of the animal under anesthesia. Tumor growth is monitored and measured in the animals. […]

phospho-AXL (p-AXL) = biological target: T1, phospho-AXL (p-AXL) (Mus musculus, UniProt Q00993); experiment: Mouse phospho-RTK array in CT26 cells; format: cell-based; settings: 500 nM, CT26 cells in vitro
T1 construct: CT26 cells also express high level of phospho-AXL (p-AXL) by western blot analysis; endogenous in cells; host or cells: CT26 (mouse colorectal cancer line)
Protocol: (§1) CT26 CRC tumor cells harbor KRAS activating mutation G12D. […] CT26 cells also express high level of phospho-AXL (p-AXL) by western blot analysis and merestinib is shown to decrease p-AXL in vitro by more than 60% at a concentration of 500 nM in the mouse phospho-RTK array, but show very little effect on CT26 cell proliferation (IC50>20 μM).

CT26 cells = experiment: CT26 cell proliferation; format: cell-based; settings: Mus musculus, in vitro
Protocol: as §1

[2] = animals of 10/group, tumor volume ≤25 mm^3

T1 sequence (Q00993 19-888): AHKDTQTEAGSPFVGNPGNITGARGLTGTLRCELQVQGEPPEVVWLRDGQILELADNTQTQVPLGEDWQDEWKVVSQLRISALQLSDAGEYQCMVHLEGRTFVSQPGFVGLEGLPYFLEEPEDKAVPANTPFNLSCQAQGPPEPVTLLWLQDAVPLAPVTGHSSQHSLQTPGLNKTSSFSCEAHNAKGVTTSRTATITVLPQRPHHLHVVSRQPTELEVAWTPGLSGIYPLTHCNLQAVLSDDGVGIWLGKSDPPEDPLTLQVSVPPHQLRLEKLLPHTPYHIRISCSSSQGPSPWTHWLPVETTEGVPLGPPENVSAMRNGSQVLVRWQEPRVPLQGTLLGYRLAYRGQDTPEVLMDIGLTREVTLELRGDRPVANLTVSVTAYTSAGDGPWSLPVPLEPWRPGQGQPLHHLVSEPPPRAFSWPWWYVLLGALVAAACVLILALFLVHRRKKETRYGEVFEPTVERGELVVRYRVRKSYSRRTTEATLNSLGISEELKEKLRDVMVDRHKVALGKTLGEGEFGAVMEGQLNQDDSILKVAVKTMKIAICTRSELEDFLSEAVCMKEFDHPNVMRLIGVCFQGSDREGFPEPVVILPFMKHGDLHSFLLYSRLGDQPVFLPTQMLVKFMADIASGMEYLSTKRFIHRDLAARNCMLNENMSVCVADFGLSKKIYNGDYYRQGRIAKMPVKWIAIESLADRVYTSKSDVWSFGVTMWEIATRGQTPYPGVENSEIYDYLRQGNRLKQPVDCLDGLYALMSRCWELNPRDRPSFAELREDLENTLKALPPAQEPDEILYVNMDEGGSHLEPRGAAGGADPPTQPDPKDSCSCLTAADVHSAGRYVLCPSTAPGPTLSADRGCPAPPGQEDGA

Cc1ccc(C(=O)Nc2ccc(Oc3cc4cnn(C)c4cc3-c3cn[nH]c3)c(F)c2)c(=O)n1-c1ccc(F)cc1 [merestinib, N-(3-fluoro-4-(1-methyl-6-(1H-pyrazol-4-yl)-1H-indazol-5-yloxy)phenyl)-1-(4-fluorophenyl)-6-methyl-2-oxo-1,2-dihydropyridine-3-carboxamide]
change in immune cells by flow cytometry (immune cells): no significant change
tumor growth after cessation of dosing ([1]; 12 mg/kg, after the 21 day dosing period, Days 33-40): grew exponentially
% Response (% ΔT/C above baseline, % Regression below baseline) ([1]; Day 8): −65.5%
Mean Tumor Volume ([1]; Day 8): 64.7
% Response (% ΔT/C above baseline, % Regression below baseline) ([1]; Day 12): −29.4%
Mean Tumor Volume ([1]; Day 12): 132.5
% Response (% ΔT/C above baseline, % Regression below baseline) ([1]; Day 15): 14.6%
Mean Tumor Volume ([1]; Day 15): 206.6
% Response (% ΔT/C above baseline, % Regression below baseline) ([1]; Day 19): 53.7%
Mean Tumor Volume ([1]; Day 19): 357.7
% Response (% ΔT/C above baseline, % Regression below baseline) ([1]; Day 22): 35.6%
Mean Tumor Volume ([1]; Day 22): 491.5
% Response (% ΔT/C above baseline, % Regression below baseline) ([1]; Day 25): 31.3%
Mean Tumor Volume ([1]; Day 25): 717.0
% Response (% ΔT/C above baseline, % Regression below baseline) ([1]; Day 28): 24.8%
Mean Tumor Volume ([1]; Day 28): 845.3
% Response (% ΔT/C above baseline, % Regression below baseline) ([1]; Day 33): 27.1%
Mean Tumor Volume mm^3 ([1]; Day 33): 1609.0 mm^3
T/C % ([1]; Day 33): 31.2%
anti-tumor effect as compared to vehicle control ([1]; Day 33 / end of dosing): significant anti-tumor effect
Difference (Treatment 1 − Treatment 2), log scale tumor volume ([1]; Day 33, Treatment 1 = Vehicle control): 0.529
Mean Tumor Volume ([1]; Day 33): 1608.2
Day 33 Treatment Responders GD (Growth Delay) ([1]; animals of 10/group): 1
Day 33 Treatment Responders PD (Progressive Disease) ([1]; animals of 10/group): 9
Day 33 Treatment Responders PR (Partial Response) ([1]; animals of 10/group): 0
Day 64 Treatment Responders GD (Growth Delay) ([1]; animals of 10/group): 1
Day 64 Treatment Responders PD (Progressive Disease) ([1]; animals of 10/group): 9
Day 64 Treatment Responders PR (Partial Response) ([1]; animals of 10/group): 0
Day 33 Treatment Responders CR (Complete and durable Regression) [1, 2]: 0
Day 64 Treatment Responders CR (Complete and durable Regression) [1, 2]: 0
decrease of p-AXL (phospho-AXL (p-AXL)): more than 60%
IC50 (CT26 cells): > 20 µM
